PMC11658185, “Analysis of the quadruple lsu mutant reveals molecular determinants of the role of LSU proteins in sulfur assimilation in Arabidopsis” (The Plant Journal, 2024)

Biological target: T1, SiR (sulfite reductase; His-SiR) (Arabidopsis thaliana, UniProt Q9LZ66)
T1 construct: N-terminal His tag, expressed in E. coli Rosetta (DE3), expected size 68 kDa; truncations printed up to residue 642
T1 sequence (Q9LZ66 62-642): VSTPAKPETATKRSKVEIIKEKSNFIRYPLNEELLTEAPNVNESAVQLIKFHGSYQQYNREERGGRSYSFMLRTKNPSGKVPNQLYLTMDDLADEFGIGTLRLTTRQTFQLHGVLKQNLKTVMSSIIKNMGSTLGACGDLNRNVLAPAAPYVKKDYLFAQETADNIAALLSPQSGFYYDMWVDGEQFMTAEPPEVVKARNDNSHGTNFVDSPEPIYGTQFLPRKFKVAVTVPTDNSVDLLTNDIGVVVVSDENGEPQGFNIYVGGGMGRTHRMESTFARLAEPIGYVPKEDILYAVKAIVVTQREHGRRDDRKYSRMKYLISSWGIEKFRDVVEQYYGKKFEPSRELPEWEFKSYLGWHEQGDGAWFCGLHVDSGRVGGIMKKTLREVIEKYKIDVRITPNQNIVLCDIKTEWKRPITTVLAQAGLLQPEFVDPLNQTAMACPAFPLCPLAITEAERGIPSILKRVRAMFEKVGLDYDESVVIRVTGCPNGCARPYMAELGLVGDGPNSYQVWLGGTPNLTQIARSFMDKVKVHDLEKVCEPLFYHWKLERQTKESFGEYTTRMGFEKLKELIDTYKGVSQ
Experiment: coupled assay: sulfide trapped as cysteine by O-acetylserine(thiol)lyase, ninhydrin, OD […] nm; sulfite varied
Type: biochemical
Settings: pH 7.5, 25 mM HEPES, RT, 1 h; methyl viologen reduced by dithionite as electron donor; O-acetylserine 5 mM; without LSU1

## O=S(O)O [sulfite]
  coupled assay: sulfide trapped as cysteine by O-acetylserine(thiol)lyase, ninhyd: Specific activities of the enzyme at various concentrations of: electron donor methyl‐viologen (a), substrate sulfite (b)
